Reference: US8921397B2, “Benzofurane-piperidine compounds” (Hoffmann-La Roche Inc., priority 2011, dated 2014)
pKi: −log10 of the molar value.

Legend:
human 5-HT2A receptor = human 5-HT2A receptor (Homo sapiens (Human), UniProt P28223); experiment: Radioligand binding ([3H]-ketanserin) to human 5-HT2A receptor, HEK293 EBNA membranes; conditions: HEK293 EBNA cells expressing human 5-HT2A receptor
Method in brief: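 Membranes from HEK293 EBNA cells transiently expressing the human receptor were incubated 1 h at RT with ~0.7 nM (D2) or 0.5 nM (D3) [3H]-spiperone, or 1.1 nM [3H]-ketanserin (5-HT2A), plus ten compound concentrations (10 μM–0.1 nM). Nonspecific binding was set with 10 μM spiperone; Ki was derived from IC50 via Cheng-Prusoff.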

human D3 receptor = human D3 receptor (Homo sapiens (Human), UniProt P35462); experiment: Radioligand binding ([3H]-spiperone) to human D3 receptor, HEK293 EBNA membranes; conditions: HEK293 EBNA cells expressing human D3 receptor
human D3 receptor, sequence (P35462 whole entry): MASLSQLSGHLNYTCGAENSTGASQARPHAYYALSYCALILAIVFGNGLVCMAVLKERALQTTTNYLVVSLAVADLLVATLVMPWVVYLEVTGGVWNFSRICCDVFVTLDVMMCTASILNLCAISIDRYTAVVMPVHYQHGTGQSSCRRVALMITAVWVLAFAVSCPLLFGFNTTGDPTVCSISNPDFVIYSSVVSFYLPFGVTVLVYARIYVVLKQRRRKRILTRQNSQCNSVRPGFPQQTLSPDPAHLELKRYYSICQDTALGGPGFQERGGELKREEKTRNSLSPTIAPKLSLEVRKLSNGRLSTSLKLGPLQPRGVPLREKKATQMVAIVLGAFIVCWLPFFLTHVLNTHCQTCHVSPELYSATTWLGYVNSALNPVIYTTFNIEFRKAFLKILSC
Method in brief: (§1)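 Membranes from transiently transfected HEK293 EBNA cells (~7.5 μg protein/well) were incubated 1 h at RT with [3H]-spiperone (~0.7 nM for D2, 0.5 nM for D3) and ten compound concentrations (10 μM–0.1 nM) in Tris/NaCl/MgCl2/CaCl2 buffer pH 7.4. Filtration and scintillation counting, nonspecific with 10 μM spiperone; Ki via Cheng-Prusoff.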

human D2 receptor = human D2 receptor (Homo sapiens (Human), UniProt P14416); experiment: Radioligand binding ([3H]-spiperone) to human D2 receptor, HEK293 EBNA membranes; conditions: HEK293 EBNA cells expressing human D2 receptor
human D2 receptor, sequence (P14416 whole entry): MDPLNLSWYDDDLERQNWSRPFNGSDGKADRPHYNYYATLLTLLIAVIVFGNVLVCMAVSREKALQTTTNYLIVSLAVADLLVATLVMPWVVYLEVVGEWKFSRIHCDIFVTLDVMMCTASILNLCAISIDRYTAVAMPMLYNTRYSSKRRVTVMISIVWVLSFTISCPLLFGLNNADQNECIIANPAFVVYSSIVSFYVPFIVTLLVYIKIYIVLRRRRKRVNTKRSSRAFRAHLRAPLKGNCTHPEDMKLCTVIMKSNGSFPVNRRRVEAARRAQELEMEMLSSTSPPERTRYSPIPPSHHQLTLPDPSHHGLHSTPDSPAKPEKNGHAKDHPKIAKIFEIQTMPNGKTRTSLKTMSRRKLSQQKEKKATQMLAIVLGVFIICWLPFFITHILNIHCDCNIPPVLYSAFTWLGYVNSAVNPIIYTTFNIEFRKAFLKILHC
Method in brief: as §1

human 5-HT2A receptor, sequence (P28223 whole entry): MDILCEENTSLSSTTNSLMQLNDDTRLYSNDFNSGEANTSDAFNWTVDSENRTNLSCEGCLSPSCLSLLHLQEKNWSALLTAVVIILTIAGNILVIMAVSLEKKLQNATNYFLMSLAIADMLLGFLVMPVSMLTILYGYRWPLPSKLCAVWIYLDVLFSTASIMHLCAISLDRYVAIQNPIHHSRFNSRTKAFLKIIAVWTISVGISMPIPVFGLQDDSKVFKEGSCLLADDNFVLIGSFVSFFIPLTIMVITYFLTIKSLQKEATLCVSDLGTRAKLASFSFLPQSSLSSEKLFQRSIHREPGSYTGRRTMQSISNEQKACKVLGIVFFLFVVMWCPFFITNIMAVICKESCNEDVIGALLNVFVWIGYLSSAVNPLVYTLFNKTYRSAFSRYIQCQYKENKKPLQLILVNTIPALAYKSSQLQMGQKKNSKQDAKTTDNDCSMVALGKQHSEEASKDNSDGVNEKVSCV

| SMILES | pKi (human 5-HT2A receptor) | pKi (human D3 receptor) | melting point | pKi (human D2 receptor) |
| --- | --- | --- | --- | --- |
| N#CCC(=O)N[C@H]1CC[C@H](CCN2CCC(c3coc4ccccc34)CC2)CC1 [Example 23, trans-N-{4-[2-(4-Benzofuran-3-yl-piperidin-1-yl)-ethyl]-cyclohexyl}-2-cyano-acetamide] | 8.22 | 9.08 | 186 °C | 7.38 |
| N#Cc1ccc(C(=O)N[C@H]2CC[C@H](CCN3CCC(c4coc5ccccc45)CC3)CC2)cc1 [Example 70, trans-N-{4-[2-(4-Benzofuran-3-yl-piperidin-1-yl)-ethyl]-cyclohexyl}-4-cyano-benzamide] | 8.23 | 8.57 | 195 °C | 7.82 |
| O=C(N[C@H]1CC[C@H](CCN2CCC(c3coc4ccccc34)CC2)CC1)c1ccc(N2CCS(=O)(=O)CC2)cc1 [Example 66, trans-N-{4-[2-(4-Benzofuran-3-yl-piperidin-1-yl)-ethyl]-cyclohexyl}-4-(1,1-dioxo-1λ6-thiomorpholin-4-yl)-benzamide] | 8.00 | 8.47 | 269 °C | 7.72 |
| C/C=C/CC(=O)N[C@H]1CC[C@H](CCN2CCC(c3coc4ccccc34)CC2)CC1 [Example 54, (E)-Pent-3-enoic acid trans-{4-[2-(4-benzofuran-3-yl-piperidin-1-yl)-ethyl]-cyclohexyl}-amide] | 7.91 | 8.74 | 165 °C | 7.24 |
